Test results as given in article PMC11794677, “Self‐Assembly of a Conjugate of Lipoic Acid With a Collagen‐Stimulating Pentapeptide Showing Cytocompatibility and Wound Healing Properties, and Chemical and Photolytic Disassembly” (Journal of Peptide Science, 2025).

Key:
[1] = tested on: RAW 264.7 cells; test: Nitrite (inflammation) assay with Griess reagent; format: cell-based; conditions: 2 μg LPS, 24 h, different concentrations, absorbance 550 nm, ANOVA with Bonferroni correction
Description: To detect nitrite, the Griess reagent assay was used, following protocols described previously. Amounts 5 × 10^3 RAW 264.7 cells were seeded in a 96‐well plate and incubated for 24 h inside the cell incubator. After 24 h, the cells were washed three times with PBS and incubated in 100 μL of DMEM + 2 μg of LPS (lipopolysaccharide) for 24 h. After incubation in the presence of LPS, 100 μL of Griess reagent solution was added to each well and incubated for 10 min at room temperature. The resulting absorbance was measured at 550 nm using an Infinite F50 microplate reader (TECAN, Switzerland).
The Griess reagent assay was used as an indirect measure of the production of nitrite ions, an important species related to inflammation, by monitoring the presence of nitrites in media via colorimetric (UV‐vis absorbance) measurements. The assay was performed by incubating the cells in DMEM containing 2 μg of LPS with different concentrations of lipoyl‐KTTKS. Controls containing only LPS and RAW cells incubated in DMEM without LPS were also prepared.

[2] = tested on: procollagen type I carboxy-terminal peptide (PIP); conditions: cited from earlier work
Text: Here, we investigate the structural properties, biocompatibility and collagen‐stimulating activity of a novel peptide amphiphile comprising a conjugate of lipoic acid to pentapeptide KTTKS, termed lipoyl‐KTTKS (Scheme 1). […] This can be contrasted with previous reported data f ...

[3] = tested on: type I/III collagen production by HDFa cells; test: Collagen quantification, picrosirius red (Direct red 80) staining; format: cell-based, Human; conditions: 72 h incubation, different concentrations, absorbance 490 nm, ANOVA, n = 3
Description: To quantify collagen production, HDFa cells were seeded at a confluency of 1 × 10^4 cells/well into 96‐well plates in DMEM/F12 + 5 μg/mL of insulin and incubated for 3 days in DMEM/F12 without supplements as control, or DMEM/F12 + different concentrations of lipoyl‐KTTKS and conventional supplements (ascorbic acid 1 mM, TGFβ1 0.025 ng/mL and insulin 10 μg/mL). After incubation, the cells were washed three times with PBS and were fixed with cold ethanol 70%. The plate was transferred to a −80°C ultra‐freezer for 10 min and washed with water to remove any residual ethanol. After fixation, the collagen was incubated overnight in a solution containing Direct red 1 mg/mL in picric acid at 4°C. After this final incubation, the fixed cells were washed with distilled water to remove any residual dye, and the collagen and cells were then treated with 1‐mM NaOH for 10 min at room temperature. The resulting absorbance was measured at 490 nm using an Infinite F50 microplate reader (TECAN, Switzerland).
Because of the great commercial interest in KTTKS pentapeptides in cosmetic products with proposed antiaging properties resulting from cellular matrix stimulation, collagen production assays were performed using the technique of picrosirius red (commercial name, Direct red 80) staining (UV/vis absorbance) measurements.

[4] = SAXS form factor fits (core-shell cylinder, generalized Gaussian coil); format: physicochemical; also: values in Å
Description: SAXS experiments were performed on beamline B21 [28] at Diamond (Didcot, UK). The sample solution was loaded into the 96‐well plate of an EMBL BioSAXS robot and then injected via an automated sample exchanger into a quartz capillary (1.8‐mm internal diameter) in the X‐ray beam. The quartz capillary was enclosed in a vacuum chamber, to avoid parasitic scattering. After the sample was injected into the capillary and reached the X‐ray beam, the flow was stopped during the SAXS data acquisition. Beamline B21 was operated with a fixed camera length (3.9 m) and fixed energy (12.4 keV). The images were captured using a PILATUS 2M detector. Data processing was performed using dedicated beamline software ScÅtter.
Cryo‐TEM was used to probe potential aggregation in solution above the CAC (3 wt% aqueous solution). […] The presence of such structures was also confirmed by SAXS and SANS data (Figure 3), which reveal form factor features that can be fitted using a core‐shell cylinder form factor, consistent with extended fibril structures. The cylinder radius is 25 Å, which is approximately equal to the estimated length of the molecule considering the lipid chain plus a pentapeptide in a β‐sheet conformation. […] For the SAXS data, it was necessary to include a contribution in the fits from unaggregated peptide, which gives rise to scattering at high q, described using a generalized Gaussian coil form factor (generalized refers to allowing the Flory exponent for the coil to vary from the value ν = 0.5 for an unperturbed coil). SANS data for 3 wt% solutions of lipoyl‐KTTKS in D2O can be fitted to a core‐shell cylinder form factor, consistent with SAXS, with fit parameters listed in Table S1. It was not necessary to allow for unaggregated monomer in fitting the SANS data, which may be because of the higher background and/or altered scattering contrast compared with SAXS. The cylinder radius and shell thickness obtained from the fits to the SANS data are in excellent agreement with the parameters obtained from the SAXS fit.
The ring‐opening of the lipoyl moiety can be achieved under reductive conditions. We examined the effect of chemical reduction on the self‐assembled structures of lipoyl‐KTTKS using TCEP [tris(2‐carboxyethyl)phosphine] as reductant. […] The SAXS data in Figure 3a show a considerable reduction in scattering intensity after addition of TCEP and the SANS profile in Figure 3b is barely above background after addition of TCEP. The SAXS data can be described using a form factor for monomer scattering with a power‐law intensity function at low q to account for a small fraction of irregular aggregates. The disruption of the fibrils upon TCEP addition was also confirmed by cryo‐TEM (images shown in Figure S1) because no aggregate structures were observed after addition of TCEP. Circular dichroism (CD) spectra shown in Figure 4 are characterized by a negative minimum in the CD spectrum at 196 nm along with the absence of defined features at higher wavelength, characteristic of a primarily disordered conformation. However, taking the difference between the CD spectra for lipoyl‐KTTKS without and with TCEP produces a spectrum (green spectrum in Figure 5) with a minimum near 215 nm, characteristic of β‐sheet structure. This is consistent with the observation that lipoyl‐KTTKS forms fibril‐like structures above a CAC detected by ThT binding to β‐sheet structure and as observed by cryo‐TEM, SAXS and SANS.
Table S1. SANS and SAXS data fitted parameters. Data fitted using SASfit,^[1-2] using a long cylindrical shell form factor model, with allowance for monomers via a Generalized Gaussian coil factor for SAXS data. […]

[5] = 3 wt%, long cylindrical shell form factor
[6] = 3 wt%, long cylindrical shell form factor, listed as lipoyl-KTTKS

Substance: lipoyl‐KTTKS [peptide amphiphile comprising a conjugate of lipoic acid to pentapeptide KTTKS]
- Production of nitrites compared with cells incubated only in DMEM (without LPS) ([1]; n = 3): statistically significant increase
- Production of nitrites compared with cells incubated only in DMEM (without LPS) ([1]; n = 3, listed as lipoyl‐KTKKS): increase
- Increase in collagen synthesis compared with negative control ([2]; 0.038 wt% (0.5 mM) sample, enzyme immunoassay of PIP, single data point): 65%
- Collagen synthesis relative to control and KTTKS [2]: superior to control and KTTKS itself
- Collagen production compared with the control or conventional stimulants [3]: no statistically significant increase
- Rg radius of gyration (monomer) ([4]; 3 wt% with 2.6 wt% TCEP, generalized Gaussian coil form factor): 6.3 Å
- Rg radius of gyration (unaggregated peptide) ([4]; 3 wt%, generalized Gaussian coil form factor): 22.0 Å
- L length [4, 5]: 987 Å
- Ro outer radius (Gaussian polydispersity ΔR) [4, 5]: 25 Å
- t shell thickness [4, 5]: 10 Å
- Ro outer radius (Gaussian polydispersity ΔR) [4, 6]: 25.0 ± 25.0 Å
- t shell thickness [4, 6]: 10.0 Å
